Positions of bridges follow the written chain, without caps; N, C: chain ends. Residues, ends and D or L forms follow the SMILES beside them.
Experiments:
[1] = test system: CaCo-2 cells; assay: ^3H-taurocholate (bile acid) absorption by CaCo-2 monolayer; assay type: cell-based, human; conditions: for absorption of ^3H-taurocholate (kinetics, FIG. 4): 16-day CaCo-2 monolayers, incubation up to 60 minutes, average of three determinations; for absorption of ^3H-taurocholate (kinetics, FIG. 4) / absorption of ^3H-taurocholate (FIG. 5): 30 min pre-incubation; for absorption of ^3H-taurocholate (FIG. 5): 20-day CaCo-2 cells, 60 minutes with 1 uCi ^3H-taurocholate, quadruplets
Experimental: (§1) CaCo-2, human colon carcinoma cells, were obtained from American Type Culture Collection (ATCC) and cultured in DMEM medium containing 10% fetal bovine serum, 1% penicillin-streptomycin, 2 mM L-glutamine, 1% non-essential-amino acids. Cells were fed fresh medium every third day and grown for 16-21 days to form completely differentiated monolayer. Fully differentiated CaCo-2 cells are known to express high density of GC-C receptors.
Phosphatidyl choline was dissolved in ethanol to make 50 mM stock solution. Calculated volume of the stock solution of phosphatidyl choline was mixed with 3H-taurocholate in a plastic tube and dried under argon gas at 80° C. The dried material was dissolved in transport buffer to get the final concentration of phosphatidyl choline (0.5 mM) and of 3H-taurocholate 10 μCi/mL.
CaCo-2 cells were grown in 24-well plates for 16 days to allow complete monolayer formation and cell differentiation. Completely differentiated monolayers were then pre-incubated with 250 μL of the transport buffer (HEPES 25 mM, NaCl 120 mM, KCl 5.4 mM, CaCl2 1.8 mM and MgSO4, pH 7.5) containing either SP-304 alone or in combination with PDE inhibitors such as IBMX, SS and ZAP. The monolayers were pre-incubated with transport buffer containing either of the following: vehicle (control), 1 mM 8-bromo-cGMP, 500 μM SS, 500 μM ZAP, 1 μM SP-304, 0.1 μM SP-304+500 μM SS and 1 μM SP-304+500 μM ZAP. After the indicated pre-incubation time, 50 μL, of ^3H-taurocholate (1 μCi) cocktail was added and cells were incubated for an additional 60 minutes, washed three times with ice cold PBS. Cells were lysed with 0.5 N NaOH for 4 hours and radioactivity in the lysate was counted in a scintillation counter.
16-day grown monolayers of CaCo-2 cells in 24-well plates were pre-incubated with transport buffer containing the compounds as indicated in the figure for 30 minutes. After the pre-incubation, 1 μCi of ^3H-taurocholate cocktail was added in each well and cells were further incubated for 60 minutes. Cells were washed three times with ice cold PBS and lysed with 0.5 N NaOH and lysates were counted for radioactivity in a scintillation counter. Results are expressed as an average of three determinations. Results on the x-axis were plotted in logarithmic scale.
After the pre-incubation, 1 μCi of ^3H-taurocholate cocktail was added in each well and cells were further incubated for 60 minutes. Cells were washed three times with ice cold PBS and lysed with 0.5 N NaOH and lysates were counted for radioactivity in a scintillation counter. This experiment was run in quadruplets and results are expressed as mean±SD.
The procedure used in this experiment was essentially the same except that a lower concentration of ZAP (250 μM) in combination experiments with SP-304.

[2] = target: T1, GC-C receptors (Homo sapiens, UniProt P25092); assay: Cyclic GMP stimulation assay in CaCo-2 monolayers (cGMP ELISA); assay type: cell-based; conditions: for effect of PDE inhibitor on stimulation of cGMP production by SP-304: PDE inhibitor in combination with SP-304, 30 minutes
T1 construct: host or cells: CaCo-2 human colon carcinoma cells, differentiated monolayers grown for 16 days
T1 sequence (P25092 24-1073): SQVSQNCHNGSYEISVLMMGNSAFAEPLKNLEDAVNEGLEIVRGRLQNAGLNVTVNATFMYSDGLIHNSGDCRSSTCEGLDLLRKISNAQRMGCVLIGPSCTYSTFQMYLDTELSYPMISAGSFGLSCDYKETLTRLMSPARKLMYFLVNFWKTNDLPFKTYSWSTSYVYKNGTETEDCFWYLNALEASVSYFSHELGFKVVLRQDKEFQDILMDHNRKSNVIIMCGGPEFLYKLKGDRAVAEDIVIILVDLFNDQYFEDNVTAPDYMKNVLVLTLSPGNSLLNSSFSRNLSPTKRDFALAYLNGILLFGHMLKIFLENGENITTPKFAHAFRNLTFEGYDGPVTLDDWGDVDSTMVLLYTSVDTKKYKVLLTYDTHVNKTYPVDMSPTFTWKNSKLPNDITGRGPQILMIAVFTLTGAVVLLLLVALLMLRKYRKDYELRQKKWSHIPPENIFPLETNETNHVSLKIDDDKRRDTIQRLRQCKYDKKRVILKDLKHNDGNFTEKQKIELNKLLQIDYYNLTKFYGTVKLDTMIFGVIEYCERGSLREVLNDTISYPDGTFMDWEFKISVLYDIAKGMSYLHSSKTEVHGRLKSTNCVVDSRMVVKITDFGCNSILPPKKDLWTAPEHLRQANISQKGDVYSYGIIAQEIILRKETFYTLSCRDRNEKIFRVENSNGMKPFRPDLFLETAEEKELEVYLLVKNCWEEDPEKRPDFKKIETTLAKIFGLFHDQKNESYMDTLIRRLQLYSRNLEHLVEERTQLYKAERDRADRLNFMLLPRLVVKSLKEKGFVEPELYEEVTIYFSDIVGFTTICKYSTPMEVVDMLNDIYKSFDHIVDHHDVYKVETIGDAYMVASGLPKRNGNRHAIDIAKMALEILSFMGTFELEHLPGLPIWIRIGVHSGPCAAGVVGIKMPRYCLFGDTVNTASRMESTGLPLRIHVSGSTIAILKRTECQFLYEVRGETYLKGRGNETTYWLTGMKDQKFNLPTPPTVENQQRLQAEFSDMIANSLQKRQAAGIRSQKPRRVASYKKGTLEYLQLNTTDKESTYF
Experimental: as §1
Biological activity of the GCRA peptides was assayed as previously reported (5). Briefly, 16 days grown monolayers of CaCo-2 cells in 24-well plates were washed twice with 250 μl of DMEM containing 50 mM HEPES (pH 7.4), pre-incubated at 37° C. for 10 min with 250 μl of DMEM containing 50 mM HEPES (pH 7.4) and 1 mM isobutylmethylxanthine (IBMX), followed by incubation with GCRA peptides (0.1 nM to 10 μM) for 30 min. The medium was aspirated, and the reaction was terminated by the addition of 3% perchloric acid. Following centrifugation, and neutralization with 0.1 N NaOH, the supernatant was used directly for measurements of cGMP using an ELISA kit (Caymen Chemical, Ann Arbor, Mich.)
Monolayers were treated […] of serum free DMEM for 30 minutes with either SP-304 alone or in combination with phosphodiesterase inhibitors such as, 3-isobutyl-1-methylxanthine (IBMX), sulindac sulfone (SS) and zaprinast (ZAP). After the incubation, monolayer were lysed with 250 μL of 3% perchloric acid. The lysate was neutralized with 0.1 N NaOH and used for ELISA to determine the concentration of cGMP. The assay procedure was essentially the same as described (5). […] Since CaCo-2 cells overexpress phosphodiesterases (PDE), GC-C agonists are used in combination with PDE inhibitors to measure the actual stimulatory effect of GC-C agonists.

Structure (SMILES) | absorption of ^3H-taurocholate (kinetics, FIG. 4) [1] | absorption of ^3H-taurocholate (FIG. 5) [1] | effect of PDE inhibitor on stimulation of cGMP production by SP-304 [2] | further results
Nc1nc2c(nc(Br)n2[C@@H]2O[C@@H]3COP(=O)(O)O[C@H]3[C@H]2O)c(=O)[nH]1 [8-Br-cGMP, 8-bromo-cGMP] | inhibited | inhibited |  | 
CC1=C(CC(=O)O)c2cc(F)ccc2/C1=C\c1ccc(S(C)(=O)=O)cc1 [SS, sulindac sulfone] |  |  | synergistic effects | 
CC(C)Cn1c(=O)n(C)c(=O)c2[nH]cnc21 [IBMX, 3-isobutyl-1-methylxanthine] |  |  | synergistic effects | 
CC(C)C[C@H](NC(=O)[C@@H]1CSSC[C@@H]2NC(=O)[C@H](CC(C)C)NC(=O)[C@H](CCC(=O)O)NC(=O)[C@@H](NC(=O)[C@H](CCC(=O)O)NC(=O)[C@H](CC(=O)O)NC(=O)[C@@H](N)CC(N)=O)CSSC[C@H](NC(=O)[C@H](C)NC(=O)[C@H](C(C)C)NC(=O)[C@H](CC(N)=O)NC(=O)[C@H](C(C)C)NC2=O)C(=O)N[C@@H]([C@@H](C)O)C(=O)NCC(=O)N1)C(=O)O [SP-304, Asn^1-Asp^2-Glu^3-Cys^4-Glu^5-Leu^6-Cys^7-Val^8-Asn^9-Val^10-Ala^11-Cys^12-Thr^13-Gly^14-Cys^15-Leu^16] (H-NDECELCVNVACTGCL-OH; disulfide 4-12, 7-15; N-terminus assumed) | inhibited | inhibited |  | cGMP production by CaCo-2 cells in response to stimulation ([2]; serum free DMEM, 30 minutes, cGMP by ELISA): produced cGMP in response to stimulation; inhibition in absorption of ^3H-taurocholate (FIG. 6), SP-304 alone ([1]; SP-304 0.1 uM alone): did not produce much inhibition; inhibition of ^3H-taurocholate absorption (FIG. 6), SP-304 in combination with ZAP ([1]; SP-304 0.1 uM in combination with ZAP 250 uM, compared with SP-304 alone): greater effect on inhibition
CCCOc1ccccc1-c1nc2nn[nH]c2c(=O)[nH]1 [ZAP, zaprinast] |  |  | synergistic effects | cGMP production among the PDE inhibitors combined with SP-304 ([2]; comparison of IBMX, SS and ZAP): maximum production of cGMP

Source: patent publication US9814752B2, “Agonists of guanylate cyclase useful for the treatment of hypercholesterolemia, atherosclerosis, coronary heart disease, gallstone, obesity and other cardiovascular diseases” (SYNERGY PHARMACEUTICALS, INC., priority 2007, dated 2017)
